# Assay results as given in US20220096411A1, “COMBINING METABOLIC STIMULATION AND AMINO ACIDS TO SENSITIZE TOLERANT BACTERIA TO ANTIBIOTICS” (priority 2019, published 2022).
# Assays:
# [1] = tested on: Escherichia coli K12 strain MG1655; assay: Killing assay (CFU) of tolerant stationary phase cultures; type: cell-based; conditions: for ability of individual carbon source to restore β-lactam antibiotic sensitivity (CFU/mL): tolerant cultures grown in 100% LB medium, FIG. 5
# [2] = tested on: Escherichia coli K12 strain MG1655; assay: MIC determination (metabolite-enabled MIC from optical density dose-response); type: cell-based; conditions: for metabolite-enabled MIC of β-lactams upon metabolite supplementation: ampicillin, carbenicillin, mecillinam, penicillin, 1% LB; for metabolite-enabled MIC of β-lactams upon metabolite supplementation / metabolite-enabled MIC, D-isomer compared with L-isomer: metabolite 10 mM; for metabolite-enabled MIC, D-isomer compared with L-isomer: β-lactams of FIG. 1B; for potentiation of the antibiotic by D-amino acids: with pyruvate (FIG. 2E) or without metabolic stimulant (FIG. 2F), ampicillin potentiated, comparators D-cycloserine, ciprofloxacin, gentamicin are the non-β-lactams; for change of ampicillin MIC on amino acid supplementation: across all tested growth-supporting metabolites (carbon sources), FIG. 2B
# [3] = tested on: Escherichia coli K12 strain MG1655; type: cell-based
# [4] = tested on: E. coli genetic knockout ΔdadA; assay: Ampicillin sensitization of knockout strain unable to catabolize D-alanine into pyruvate; type: cell-based, Escherichia coli; conditions: FIG. 2A; for sensitivity of tolerant ΔdadA bacteria to ampicillin on amino acid supplementation alone: no pyruvate; for potentiation of ampicillin sensitivity of ΔdadA strain by amino acid: strain supplemented with pyruvate
# [5] = tested on: clinical isolate of Escherichia coli (isolate DICON-146); assay: Killing assay, ampicillin-resistant ESBL clinical isolate in stationary phase; type: cell-based; conditions: D-methionine added on top of sulbactam and pyruvate; FIG. 3C
compound,measurement,setting,value
OCC(O)CO [glycerol],ability of individual carbon source to restore β-lactam antibiotic sensitivity (CFU/mL),[1],varying abilities to restore β-lactam antibiotic sensitivity
N[C@H](CO)C(=O)O [D-serine],metabolite-enabled MIC of β-lactams upon metabolite supplementation,[2]; FIG. 1B,lowest observed MICs
same,"metabolite-enabled MIC, D-isomer compared with L-isomer",[2],outperformed their corresponding L-isomers
"CC1(C)S[C@@H]2[C@H](NC(=O)[C@H](N)c3ccccc3)C(=O)N2[C@H]1C(=O)O [ampicillin, reference compound]",killing of stationary phase cultures by the antibiotic alone,"[1]; 24 hour treatment with 1 mg/ml ampicillin, cultures grown in LB 24 hours, FIG. 1A",not killed
same,potentiation of the antibiotic by D-amino acids,[2],specific to β-lactam antibiotics
O=C[C@H](O)[C@@H](O)[C@H](O)CO [xylose],ability of individual carbon source to restore β-lactam antibiotic sensitivity (CFU/mL),[1],varying abilities to restore β-lactam antibiotic sensitivity
same,effect of carbon source on growth and population density (CFU),"[3]; cultures grown in 1% LB medium, 10 mM, no antibiotic, FIG. 7A right",did stimulate growth and an increase in population density
same,effect of carbon source on population density (CFU),"[3]; cultures grown in 100% LB medium, 10 mM, no antibiotic, FIG. 7A left",did not lead to an increase in population density
O=C(O)[C@H]1CCCN1 [D-proline],"change of ampicillin MIC, D-amino acid compared with L-isomer","[2]; cultures sensitized with pyruvate, alanine pair in dadA mutant, FIG. 2C",less robust than for other D-amino acids
"N[C@@H]1CONC1=O [D-cycloserine, reference compound]",potentiation of the antibiotic by D-amino acids,[2],specific to β-lactam antibiotics
C[C@@H](N)C(=O)O [D-alanine],performance of metabolite in sensitizing cultures to ampicillin (CFU confirmed cell death),"[1]; cultures treated with ampicillin and metabolite, FIG. 1A",strong
same,sensitivity of tolerant ΔdadA bacteria to ampicillin on amino acid supplementation alone,[4],equally insensitive to ampicillin
same,potentiation of ampicillin sensitivity of ΔdadA strain by amino acid,[4],potentiate sensitivity to ampicillin
same,change of ampicillin MIC on amino acid supplementation,[2],consistently lowered the ampicillin MIC
same,metabolite-enabled MIC of β-lactams upon metabolite supplementation,[2]; FIG. 1B,lowest observed MICs
same,"metabolite-enabled MIC, D-isomer compared with L-isomer",[2],outperformed their corresponding L-isomers
O=C(CO)[C@@H](O)[C@H](O)[C@H](O)CO [fructose],ability of individual carbon source to restore β-lactam antibiotic sensitivity (CFU/mL),[1],varying abilities to restore β-lactam antibiotic sensitivity
"CC1(C)[C@H](C(=O)O)N2C(=O)C[C@H]2S1(=O)=O [sulbactam, reference compound]",restoration of ampicillin sensitivity of resistant (ESBL) E. coli in stationary phase,[5],unable to restore sensitivity to ampicillin
gentamicin [reference compound],potentiation of the antibiotic by D-amino acids,[2],specific to β-lactam antibiotics
OC[C@@H](O)[C@@H](O)[C@H](O)[C@H](O)CO [mannitol],ability of individual carbon source to restore β-lactam antibiotic sensitivity (CFU/mL),[1],varying abilities to restore β-lactam antibiotic sensitivity
C[C@H](N)C(=O)O [L-alanine],sensitivity of tolerant ΔdadA bacteria to ampicillin on amino acid supplementation alone,[4],equally insensitive to ampicillin
same,potentiation of ampicillin sensitivity of ΔdadA strain by amino acid,[4],no such potentiation was observed
same,change of ampicillin MIC on amino acid supplementation,[2],did not
"CCN1CCN(C(=O)N[C@@H](C(=O)N[C@@H]2C(=O)N3[C@@H]2SC(C)(C)[C@@H]3C(=O)O)c2ccccc2)C(=O)C1=O [piperacillin, reference compound]",sensitization of tolerant bacteria to the antibiotic,"[1]; metabolic stimulation by pyruvate and potentiation by D-amino acids, FIG. 2G",sensitized tolerant bacteria
O=C[C@@H](O)[C@H](O)[C@H](O)CO [arabinose],ability of individual carbon source to restore β-lactam antibiotic sensitivity (CFU/mL),[1],varying abilities to restore β-lactam antibiotic sensitivity
O=C(O)[C@H](O)[C@@H](O)[C@H](O)[C@H](O)CO [gluconate],ability of individual carbon source to restore β-lactam antibiotic sensitivity (CFU/mL),[1],varying abilities to restore β-lactam antibiotic sensitivity
CSCC[C@@H](N)C(=O)O [D-methionine],sensitization of stationary phase MG1655 to ampicillin in MOPS-rich medium,"[1]; MOPS-rich medium, D-methionine added on top of pyruvate, FIG. 3A",further potentiated ampicillin
same,observed effect size of D-amino acid on β-lactam MIC,"[2]; FIG. 1B, FIG. 2C",larger than for D-alanine
same,restoration of ampicillin sensitivity of resistant (ESBL) E. coli in stationary phase,[5],further potentiated killing by lower drug concentrations
same,effect of D-methionine on population density (CFU),"[3]; used alone or in combination with xylose, FIG. 7B",did not increase population density
